Tests used:
integrin α4β1 = molecular target: T1, integrin α4β1 (Homo sapiens, UniProt P05556+P13612); experiment: VCAM antagonist activity (VCAM-1/α4β1 binding assay), Jurkat cells binding to VCAM-1; format: cell-based; conditions: Jurkat human T cells binding to recombinant human VCAM-1; read-out: VCAM antagonistic activity (IC50) α4β1
T1 construct: cell strain Jurkat (ATCC TIB-152) of human T cells, known to express integrin α4β1; endogenous in cells; host or cells: Jurkat (ATCC TIB-152)
Experimental: VCAM Antagonist Activity (VCAM-1/α4β1 Binding Assay)
The capacity of a test substance antagonistic to the binding of cell strain Jurkat (ATCC TIB-152) of human T cells, known to express integrin α4β1, to VCAM-1 was determined.
(§1) 100 μl/well of a solution (500 ng/ml) of recombinant human VCAM-1 (R & D systems) solution diluted with buffer A (0.1 M NaHCO3, pH 9.6) was added to a micro titer plate having 96 wells (Nunc Maxisorp). After the incubation at 4° C. overnight, unbound VCAM-1 was removed by washing once with PBS. After completion of the washing, a buffer (buffer B) obtained by diluting Block Ace (Dainippon Pharmaceutical Co., Ltd.) with PBS to ¼ concentration was added in an amount of 150 μl/well. After the incubation at room temperature for 1 hour, buffer B was removed and the plate was washed with PBS once.
Jurkat cells were washed with Dulbecco modified Eagle medium (SIGMA, hereinafter referred to as “DMEM”) twice and then incubated in DMEM containing 10 μg/ml of Calcein-AM (Wako Pure Chemical Industries, Ltd.) at 37° C. in dark place for 30 minutes to label with fluorescence. The cells were again suspended in a binding buffer (20 mM HEPES, DMEM containing 0.1% BSA).
(§2) 50 μl of a test substance of various concentrations obtained by the dilution with the binding buffer was added to the plate. Immediately thereafter, 50 μl (final volume: 100 μl/well) of the fluorescent Jurkat cells (4×10^6 cells/ml) were added thereto, and they were incubated in dark place at room temperature for 30 minutes. After the shaking on a plate shaker (IKA MTS-4) at 800 rpm for 30 seconds, the solution was immediately removed to remove the unbound cells. The fluorescence quantity of the bound cells remaining in the wells was determined with a fluorescent plate reader (Wallac 1920 ARVO multi-label counter) (filter excitation wave length: 485 nm, emission wave length: 535 nm). The fluorescent strength thus obtained is proportional to the number of Jurkat cells bound to VCAM-1 and remaining on the plate. The binding rate of each test material in various concentrations was determined while the fluorescent strength of the test material-free well was determined to be 100%.

integrin α4β7 = molecular target: T2, integrin α4β7 (Homo sapiens, UniProt P13612+P26010); experiment: VCAM antagonistic activity (VCAM-1/α4β7 binding assay), RPMI-8866 cells binding to VCAM-1; format: cell-based; conditions: RPMI-8866 human B lymphoma cells binding to recombinant human VCAM-1; binding buffer with 4 mM MnCl2
T2 construct: lymphoma cell strain RPMI-8866 of human B cells, known to express integrin α4β7; endogenous in cells; host or cells: RPMI-8866
T2 sequence (P13612 34-1032): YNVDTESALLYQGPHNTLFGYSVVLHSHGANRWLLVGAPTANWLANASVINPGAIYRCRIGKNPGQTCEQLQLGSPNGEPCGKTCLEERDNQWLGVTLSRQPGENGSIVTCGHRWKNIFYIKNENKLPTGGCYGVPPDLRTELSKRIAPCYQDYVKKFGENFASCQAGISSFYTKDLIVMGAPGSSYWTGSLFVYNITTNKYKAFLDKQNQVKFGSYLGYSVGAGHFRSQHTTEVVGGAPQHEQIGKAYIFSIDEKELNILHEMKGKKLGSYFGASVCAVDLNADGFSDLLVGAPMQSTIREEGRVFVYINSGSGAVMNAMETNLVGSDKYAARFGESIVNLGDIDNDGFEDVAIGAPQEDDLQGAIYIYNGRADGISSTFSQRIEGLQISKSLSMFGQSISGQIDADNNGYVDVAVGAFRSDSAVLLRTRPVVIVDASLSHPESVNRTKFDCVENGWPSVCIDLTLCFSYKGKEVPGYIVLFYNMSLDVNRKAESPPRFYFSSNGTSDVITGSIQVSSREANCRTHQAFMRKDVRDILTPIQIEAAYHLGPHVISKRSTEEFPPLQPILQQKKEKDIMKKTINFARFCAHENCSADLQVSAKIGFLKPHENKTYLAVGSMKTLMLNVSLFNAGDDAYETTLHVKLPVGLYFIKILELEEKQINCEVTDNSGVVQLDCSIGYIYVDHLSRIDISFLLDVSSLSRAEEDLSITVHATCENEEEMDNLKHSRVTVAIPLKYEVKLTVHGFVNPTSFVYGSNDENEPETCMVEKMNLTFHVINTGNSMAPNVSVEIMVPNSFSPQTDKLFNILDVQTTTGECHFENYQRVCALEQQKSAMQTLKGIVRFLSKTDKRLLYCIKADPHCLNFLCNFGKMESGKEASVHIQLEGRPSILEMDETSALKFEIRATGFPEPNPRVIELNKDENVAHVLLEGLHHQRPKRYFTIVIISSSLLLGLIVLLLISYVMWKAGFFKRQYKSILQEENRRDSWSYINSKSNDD
T2 sequence (P26010 20-798): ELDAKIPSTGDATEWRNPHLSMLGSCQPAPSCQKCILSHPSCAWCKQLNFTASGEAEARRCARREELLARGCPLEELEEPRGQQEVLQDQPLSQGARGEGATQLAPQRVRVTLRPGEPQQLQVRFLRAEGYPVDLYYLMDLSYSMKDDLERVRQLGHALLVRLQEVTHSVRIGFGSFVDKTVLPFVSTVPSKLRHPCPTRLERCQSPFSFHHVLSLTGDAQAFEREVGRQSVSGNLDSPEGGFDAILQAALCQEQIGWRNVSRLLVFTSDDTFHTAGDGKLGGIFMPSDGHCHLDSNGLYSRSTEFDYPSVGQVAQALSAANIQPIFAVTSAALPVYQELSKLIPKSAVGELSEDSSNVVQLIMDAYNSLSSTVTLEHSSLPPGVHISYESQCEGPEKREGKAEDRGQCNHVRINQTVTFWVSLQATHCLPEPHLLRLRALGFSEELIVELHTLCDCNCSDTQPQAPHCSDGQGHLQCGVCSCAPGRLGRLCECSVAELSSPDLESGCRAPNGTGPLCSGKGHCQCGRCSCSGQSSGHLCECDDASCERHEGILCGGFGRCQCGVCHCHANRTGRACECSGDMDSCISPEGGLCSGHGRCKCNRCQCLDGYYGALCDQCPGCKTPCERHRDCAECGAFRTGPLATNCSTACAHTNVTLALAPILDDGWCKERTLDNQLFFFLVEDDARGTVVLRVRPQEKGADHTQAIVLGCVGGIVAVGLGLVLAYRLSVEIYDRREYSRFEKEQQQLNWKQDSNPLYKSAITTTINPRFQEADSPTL
Experimental: VCAM Antagonistic Activity (VCAM-1/α4β7 Binding Assay)
The capacity of a test substance antagonistic to the binding of lymphoma cell strain RPMI-8866 of human B cells, known to express integrin α4β7, to VCAM-1 was determined.
as §1
RPMI-8866 cells were washed with DMEM twice and incubated in Dulbecco modified Eagle medium containing 10 μg/ml of Calcein-AM (Wako Pure Chemical Industries, Ltd.) (SIGMA, hereinafter referred to as “DMEM”) in dark place at 37° C. for 30 minutes to label with fluorescence. The cells were again suspended in a binding buffer (20 mM HEPES, DMEM containing 0.1% BSA) containing 4 mM of MnCl2.
as §2, with “RPMI-8866” for “Jurkat”, “1420” for “1920”

T1 sequence (P05556 21-798, one chain of several): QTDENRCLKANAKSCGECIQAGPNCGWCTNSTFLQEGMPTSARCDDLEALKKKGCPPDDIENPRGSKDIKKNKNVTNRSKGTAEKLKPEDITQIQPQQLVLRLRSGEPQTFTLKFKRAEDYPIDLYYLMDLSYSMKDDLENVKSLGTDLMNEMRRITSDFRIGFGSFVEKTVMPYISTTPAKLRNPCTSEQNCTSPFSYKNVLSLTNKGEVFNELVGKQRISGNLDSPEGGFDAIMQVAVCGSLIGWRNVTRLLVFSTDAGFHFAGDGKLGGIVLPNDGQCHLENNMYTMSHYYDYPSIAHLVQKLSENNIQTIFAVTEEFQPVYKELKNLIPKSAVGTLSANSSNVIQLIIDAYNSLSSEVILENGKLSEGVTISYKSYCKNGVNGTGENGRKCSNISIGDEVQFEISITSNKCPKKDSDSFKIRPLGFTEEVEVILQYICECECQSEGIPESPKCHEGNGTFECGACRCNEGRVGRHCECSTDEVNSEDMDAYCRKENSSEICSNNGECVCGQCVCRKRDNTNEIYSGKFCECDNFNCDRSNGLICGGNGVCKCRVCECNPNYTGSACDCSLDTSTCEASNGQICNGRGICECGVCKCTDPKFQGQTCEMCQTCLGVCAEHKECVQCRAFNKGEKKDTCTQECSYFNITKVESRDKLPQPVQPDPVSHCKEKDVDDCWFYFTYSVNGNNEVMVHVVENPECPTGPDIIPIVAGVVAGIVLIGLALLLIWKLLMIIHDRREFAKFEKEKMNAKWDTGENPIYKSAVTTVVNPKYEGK

Row | SMILES | IC50 (integrin α4β1) | IC50 (integrin α4β7)
1 | Cn1c(=O)n(-c2ccc(C[C@H](NC(=O)c3c(Cl)cccc3Cl)C(=O)O)cc2)c(=O)c2cc(N)ccc21 [Example 107] | 17 nM | 1.1 nM
2 | CCN(CC)c1ccc2c(c1)c(=O)n(-c1ccc(C[C@H](NC(=O)c3c(Cl)cccc3Cl)C(=O)O)cc1)c(=O)n2C [Example 111] | 88 nM | 11 nM
3 | Cn1c(=O)n(-c2ccc(C[C@H](NC(=O)c3c(Cl)cccc3Cl)C(=O)O)cc2)c(=O)c2cc([N+]3(C)CCCC3)ccc21 [Example 113] | 52 nM | 1.6 nM
4 | O=C(N[C@@H](Cc1ccc(-n2c(=O)c3ccccc3n(Cc3ccc(Cl)cc3)c2=O)cc1)C(=O)O)c1c(Cl)cccc1Cl [Example 117] | 480 nM | 19 nM
5 | CN1CCC(=O)N(c2ccc(C[C@H](NC(=O)c3c(Cl)cccc3Cl)C(=O)O)cc2)C1=O [Example 135] | 570 nM | 12 nM
6 | O=C(N[C@@H](Cc1ccc(-n2c(=O)oc3ccccc3c2=O)cc1)C(=O)O)c1c(Cl)cccc1Cl [Example 136] | 565 nM | 3 nM
7 | O=C(N[C@@H](Cc1ccc(-n2c(=O)oc3c(ccc4ccccc43)c2=O)cc1)C(=O)O)c1c(Cl)cccc1Cl [Example 137] | 2120 nM | 11.2 nM
8 | COc1ccc2c(=O)n(-c3ccc(C[C@H](NC(=O)c4c(Cl)cccc4Cl)C(=O)O)cc3)c(=O)oc2c1 [Example 139] | 107 nM | 17 nM
9 | Nc1ccc2c(=O)n(-c3ccc(C[C@H](NC(=O)c4c(Cl)cccc4Cl)C(=O)O)cc3)c(=O)oc2c1 [Example 142] | 210 nM | 9 nM
10 | CN1C(=O)N(c2ccc(C[C@H](NC(=O)c3c(Cl)cccc3Cl)C(=O)O)cc2)Cc2ccccc21 [Example 147] | 107 nM | 6.5 nM
11 | COc1cccc2c(=O)n(-c3ccc(C[C@H](NC(=O)c4c(Cl)cccc4Cl)C(=O)O)cc3)c(=O)n(C)c12 [Example 180] | 86 nM | 5.4 nM
12 | Cc1cccc2c1c(=O)n(-c1ccc(C[C@H](NC(=O)c3c(Cl)cccc3Cl)C(=O)O)cc1)c(=O)n2C [Example 181] | 15 nM | 1 nM
13 | Cn1c(=O)n(-c2ccc(C[C@H](NC(=O)c3c(Cl)cccc3Cl)C(=O)O)cc2)c(=O)c2cccc(Cl)c21 [Example 182] | 113 nM | 6.2 nM
14 | Cn1c(=O)n(-c2ccc(C[C@H](NC(=O)c3c(Cl)cccc3Cl)C(=O)O)cc2)c(=O)c2cc(Cl)ccc21 [Example 183] | 25 nM | 1.7 nM
15 | COc1ccc2c(c1)c(=O)n(-c1ccc(C[C@H](NC(=O)c3c(Cl)cccc3Cl)C(=O)O)cc1)c(=O)n2C [Example 184] | 31 nM | 3.3 nM
16 | Cn1c(=O)n(-c2ccc(C[C@H](NC(=O)c3c(Cl)cccc3Cl)C(=O)O)cc2)c(=O)c2ccc(C(F)(F)F)cc21 [Example 185] | 12 nM | 2.7 nM
17 | Cc1cccc2c(=O)n(-c3ccc(C[C@H](NC(=O)c4c(Cl)cccc4Cl)C(=O)O)cc3)c(=O)n(C)c12 [Example 186] | 59 nM | 4.3 nM
18 | Cn1c(=O)n(-c2ccc(C[C@H](NC(=O)c3c(Cl)cccc3Cl)C(=O)O)cc2)c(=O)c2c(Cl)cccc21 [Example 187] | 26 nM | 3.2 nM
19 | COc1cc2c(=O)n(-c3ccc(C[C@H](NC(=O)c4c(Cl)cccc4Cl)C(=O)O)cc3)c(=O)n(C)c2cc1OC [Example 188] | 11 nM | 2.7 nM
20 | Cn1c(=O)n(-c2ccc(C[C@H](NC(=O)c3c(Cl)cccc3Cl)C(=O)O)cc2)c(=O)c2cc(F)ccc21 [Example 189] | 18 nM | 1.1 nM

— patent US8426588B2, “Phenylalanine derivatives” (Ajinomoto Co, Inc., priority 2000, dated 2013)
